Like-named read-outs stand apart in the source and are kept apart here. Square brackets hold non-standard residues; d marks the D form. Peptide text beside a SMILES is read from it.
Tests used:
hJNK3 = hJNK3 (Homo sapiens, UniProt P53779); assay: hJNK3 | IC50
Source text: (§1) Table printed on a drawing sheet, Fig. 4
Head of the field: hJNK3 | IC50
(§2) The patent's description of the figure: FIG. 4: Table illustrating the inhibitory efficacy of several JNK inhibitors according to the present invention, which are fusion proteins of a JNK inhibitory (poly-)peptide sequence and a transporter sequence. Given are the IC50 values in the nM range, the respective standard error of the mean (SEM) and the number of experiments performed (n).
(§3) First copying reader's note: The sheet prints no unit for IC50 (the description says nM range); decimal commas are used, except for three IC50 cells printed with a point (3820.81, 5340.33, 8130.86).
Where the first naming reader finds the target: head: hJNK3 | IC50

hJNK1 = molecular target: T1, hJNK1 (Homo sapiens, UniProt P45983); assay: hJNK1 | IC50
T1 construct: His; purchased Upstate 14-327
Source text: as §1
Head of the field: hJNK1 | IC50
as §2, §3
Where the first naming reader finds the target: head: hJNK1 | IC50

hJNK2 = hJNK2 (Homo sapiens, UniProt P45984); assay: hJNK2 | IC50
Source text: as §1
Head of the field: hJNK2 | IC50
as §2, §3
Where the first naming reader finds the target: head: hJNK2 | IC50

hJNK3, sequence (P53779 whole entry, looked up): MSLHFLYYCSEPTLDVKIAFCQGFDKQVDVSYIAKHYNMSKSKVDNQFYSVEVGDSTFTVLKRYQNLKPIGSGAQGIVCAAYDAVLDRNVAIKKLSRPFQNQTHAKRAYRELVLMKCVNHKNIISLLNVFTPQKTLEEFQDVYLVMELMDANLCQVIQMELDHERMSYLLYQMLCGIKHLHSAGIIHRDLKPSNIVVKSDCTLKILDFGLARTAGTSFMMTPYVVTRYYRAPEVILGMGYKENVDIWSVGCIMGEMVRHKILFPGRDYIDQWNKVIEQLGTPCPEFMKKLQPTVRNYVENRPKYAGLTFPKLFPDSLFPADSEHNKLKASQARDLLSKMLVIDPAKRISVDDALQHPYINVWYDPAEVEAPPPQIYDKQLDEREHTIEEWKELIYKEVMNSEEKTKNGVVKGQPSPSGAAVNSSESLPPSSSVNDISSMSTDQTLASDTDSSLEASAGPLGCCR
T1 sequence (P45983 whole entry, looked up): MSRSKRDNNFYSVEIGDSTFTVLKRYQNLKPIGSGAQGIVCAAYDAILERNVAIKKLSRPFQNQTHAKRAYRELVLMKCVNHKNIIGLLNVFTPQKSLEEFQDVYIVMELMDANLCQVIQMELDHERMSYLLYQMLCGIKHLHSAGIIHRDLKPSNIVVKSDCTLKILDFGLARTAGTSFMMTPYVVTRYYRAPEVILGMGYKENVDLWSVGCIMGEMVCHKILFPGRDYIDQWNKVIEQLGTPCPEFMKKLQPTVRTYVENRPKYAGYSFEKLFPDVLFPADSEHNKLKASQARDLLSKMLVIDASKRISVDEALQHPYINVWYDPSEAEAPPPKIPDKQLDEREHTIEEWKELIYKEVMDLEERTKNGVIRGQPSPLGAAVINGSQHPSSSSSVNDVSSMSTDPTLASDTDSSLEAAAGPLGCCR
hJNK2, sequence (P45984 whole entry, looked up): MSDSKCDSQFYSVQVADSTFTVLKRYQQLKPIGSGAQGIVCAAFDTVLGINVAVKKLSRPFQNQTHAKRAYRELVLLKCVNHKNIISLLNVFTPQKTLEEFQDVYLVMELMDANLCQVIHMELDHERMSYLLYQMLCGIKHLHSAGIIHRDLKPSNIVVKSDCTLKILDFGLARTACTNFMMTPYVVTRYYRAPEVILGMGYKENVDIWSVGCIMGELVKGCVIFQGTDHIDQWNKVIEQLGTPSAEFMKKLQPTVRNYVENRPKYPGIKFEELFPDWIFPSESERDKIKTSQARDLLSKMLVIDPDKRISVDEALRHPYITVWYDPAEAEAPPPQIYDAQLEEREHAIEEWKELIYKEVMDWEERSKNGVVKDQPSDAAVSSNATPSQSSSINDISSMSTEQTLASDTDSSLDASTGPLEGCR

In the case of CC(C)C[C@H](NC(=O)[C@H](C)NC(=O)[C@H](CCCCN)NC(=O)[C@H](CCCNC(=N)N)NC(=O)[C@H](CCCCN)NC(=O)CNC(=O)[C@@H](CCCNC(=N)N)NC(=O)[C@H](CCCNC(=N)N)NC(=O)[C@H](CCCNC(=N)N)NC(=O)[C@H](CCC(N)=O)NC(=O)[C@@H](CCCNC(=N)N)NC(=O)[C@H](CCCNC(=N)N)NC(=O)[C@H](CCCCN)NC(=O)[C@H](CCCCN)NC(=O)[C@H](N)CCCNC(=N)N)C(=O)N[C@H](CCCNC(=N)N)C(=O)N[C@@H](CC(C)C)C(=O)N[C@H](Cc1ccccc1)C(N)=O [SEQ ID NO: 189, rKKRrQRRrGKRKALrLf] (H-[dR]KKR[dR]QRR[dR]GKRKAL[dR]L[dF]-NH2), the IC50 (hJNK3) is reported as 0.128 µM, the IC50 (hJNK1) is reported as 22.3 µM and the IC50 (hJNK2) is reported as 0.176 µM.
Work on CC(C)C[C@H](NC(=O)[C@H](C)NC(=O)[C@H](CCCCN)NC(=O)[C@H](CCCNC(=N)N)NC(=O)[C@@H](CCCNC(=N)N)NC(=O)[C@H](CCCNC(=N)N)NC(=O)[C@H](CCCNC(=N)N)NC(=O)[C@H](CCC(N)=O)NC(=O)[C@@H](CCCNC(=N)N)NC(=O)[C@H](CCCNC(=N)N)NC(=O)[C@H](CCCCN)NC(=O)[C@H](CCCCN)NC(=O)[C@H](N)CCCNC(=N)N)C(=O)N[C@H](CCCNC(=N)N)C(=O)N[C@@H](CC(C)C)C(=O)N[C@H](Cc1ccccc1)C(N)=O [SEQ ID NO: 190, rKKRrQRRrRKALrLf] (H-[dR]KKR[dR]QRR[dR]RKAL[dR]L[dF]-NH2) yielded an IC50 (hJNK3; read-out: hJNK3 | IC50) of 0.159 µM, an IC50 (hJNK1; read-out: hJNK1 | IC50) of 8.97 µM and an IC50 (hJNK2; read-out: hJNK2 | IC50) of 0.148 µM.
For CC(C)C[C@H](NC(=O)[C@H](CC(N)=O)NC(=O)[C@H](CC(C)C)NC(=O)[C@@H](NC(=O)[C@@H](NC(=O)[C@@H]1CCCN1C(=O)[C@H](CCCNC(=N)N)NC(=O)[C@H](CCCCN)NC(=O)[C@@H]1CCCN1C(=O)[C@@H]1CCCN1C(=O)[C@H](CCCNC(=N)N)NC(=O)[C@H](CCCNC(=N)N)NC(=O)[C@H](CCCNC(=N)N)NC(=O)[C@H](CCC(N)=O)NC(=O)[C@H](CCCNC(=N)N)NC(=O)[C@H](CCCNC(=N)N)NC(=O)[C@H](CCCCN)NC(=O)[C@H](CCCCN)NC(=O)[C@H](CCCNC(=N)N)NC(=O)CN)[C@@H](C)O)[C@@H](C)O)C(=O)N[C@@H](Cc1ccccc1)C(=O)N1CCC[C@H]1C(=O)N[C@@H](CCC(N)=O)C(=O)N[C@H](C(=O)N1CCC[C@H]1C(=O)N[C@@H](CCCNC(=N)N)C(=O)N[C@@H](CO)C(=O)N[C@@H](CCC(N)=O)C(=O)N[C@@H](CC(=O)O)C(N)=O)C(C)C [SEQ ID NO: 194] (H-GRKKRRQRRRPPKRPTTLNLFPQVPRSQD-NH2), the IC50 (hJNK3) was 0.00259 µM, the IC50 (hJNK1) was 0.014 µM and the IC50 (hJNK2) was 0.0127 µM.
Work on CC(C)C[C@H](NC(=O)[C@H](CC(N)=O)NC(=O)[C@H](CC(C)C)NC(=O)[C@@H](NC(=O)[C@@H](NC(=O)[C@@H]1CCCN1C(=O)[C@H](CCCNC(=N)N)NC(=O)[C@H](CCCNC(=N)N)NC(=O)[C@H](CCCNC(=N)N)NC(=O)[C@H](CCC(N)=O)NC(=O)[C@H](CCCNC(=N)N)NC(=O)[C@H](CCCNC(=N)N)NC(=O)[C@H](CCCCN)NC(=O)[C@H](CCCCN)NC(=O)[C@H](CCCNC(=N)N)NC(=O)CN)[C@@H](C)O)[C@@H](C)O)C(=O)N[C@@H](Cc1ccccc1)C(=O)N1CCC[C@H]1C(=O)N[C@@H](CCC(N)=O)C(=O)N[C@H](C(=O)N1CCC[C@H]1C(=O)N[C@@H](CCCNC(=N)N)C(=O)N[C@@H](CO)C(=O)N[C@@H](CCC(N)=O)C(=O)N[C@@H](CC(=O)O)C(N)=O)C(C)C [SEQ ID NO: 195] (H-GRKKRRQRRRPTTLNLFPQVPRSQD-NH2) yielded an IC50 (hJNK3) of 0.00492 µM, an IC50 (hJNK1) of 0.0108 µM and an IC50 (hJNK2) of 0.0113 µM.
CC(C)C[C@H](NC(=O)[C@H](CC(N)=O)NC(=O)[C@H](CC(C)C)NC(=O)[C@@H](NC(=O)[C@@H](NC(=O)[C@@H]1CCCN1C(=O)[C@H](CCCNC(=N)N)NC(=O)[C@H](CCCCN)NC(=O)[C@@H]1CCCN1C(=O)[C@H](CCCNC(=N)N)NC(=O)[C@@H]1CCCN1C(=O)[C@@H]1CCCN1C(=O)[C@H](CCCNC(=N)N)NC(=O)[C@H](CCCNC(=N)N)NC(=O)[C@H](CCCNC(=N)N)NC(=O)[C@H](CCC(N)=O)NC(=O)[C@H](CCCNC(=N)N)NC(=O)[C@H](CCCNC(=N)N)NC(=O)[C@H](CCCCN)NC(=O)[C@H](CCCCN)NC(=O)[C@H](CCCNC(=N)N)NC(=O)CN)[C@@H](C)O)[C@@H](C)O)C(=O)N[C@@H](Cc1ccccc1)C(=O)N1CCC[C@H]1C(=O)N[C@@H](CCC(N)=O)C(=O)N[C@H](C(=O)N1CCC[C@H]1C(=O)N[C@@H](CCCNC(=N)N)C(=O)N[C@@H](CO)C(=O)N[C@@H](CCC(N)=O)C(=O)N[C@@H](CC(=O)O)C(N)=O)C(C)C [SEQ ID NO: 196] (H-GRKKRRQRRRPPRPKRPTTLNLFPQVPRSQD-NH2) was tested, and the IC50 (hJNK3) was 0.00522 µM, the IC50 (hJNK1) was 0.0422 µM and the IC50 (hJNK2) was 0.00843 µM.
CC(C)C[C@@H](NC(=O)[C@@H](Cc1ccccc1)NC(=O)[C@H]1CCCN1C(=O)[C@@H](CCC(N)=O)NC(=O)[C@H](NC(=O)[C@H]1CCCN1C(=O)[C@@H](CCCNC(=N)N)NC(=O)[C@@H](CO)NC(=O)[C@@H](CCC(N)=O)NC(=O)[C@H](N)CC(=O)O)C(C)C)C(=O)N[C@H](CC(N)=O)C(=O)N[C@H](CC(C)C)C(=O)N[C@@H](C(=O)N[C@@H](C(=O)N1CCC[C@@H]1C(=O)N[C@H](CCCNC(=N)N)C(=O)N[C@H](CCCCN)C(=O)N1CCC[C@@H]1C(=O)N[C@H](CCCNC(=N)N)C(=O)N1CCC[C@@H]1C(=O)N1CCC[C@@H]1C(=O)N[C@H](CCCNC(=N)N)C(=O)N[C@H](CCCNC(=N)N)C(=O)N[C@H](CCCNC(=N)N)C(=O)N[C@H](CCC(N)=O)C(=O)N[C@H](CCCNC(=N)N)C(=O)N[C@H](CCCNC(=N)N)C(=O)N[C@H](CCCCN)C(=O)N[C@H](CCCCN)C(=O)N[C@H](CCCNC(=N)N)C(=O)NCC(N)=O)[C@H](C)O)[C@H](C)O [SEQ ID NO: 197, dqsrpvqpflnlttprkprpprrrqrrkkrg] (H-[dD][dQ][dS][dR][dP][dV][dQ][dP][dF][dL][dN][dL][dT][dT][dP][dR][dK][dP][dR][dP][dP][dR][dR][dR][dQ][dR][dR][dK][dK][dR]G-NH2) gave an IC50 (hJNK3; read-out: hJNK3 | IC50) of 1.29 µM, an IC50 (hJNK1; read-out: hJNK1 | IC50) of 24.4 µM and an IC50 (hJNK2; read-out: hJNK2 | IC50) of 0.802 µM.
